Assay results: patent US11413278B2, “Compounds and methods for promoting stress resistance” (priority 2015, dated 2022)
“Also recorded” adds a separate entry of the source. Where two headings read alike, the source gives them in different places.

How the values were obtained:
human protein targets = conditions: PubChem database queries; cited from earlier work
NRF2 = assay: qPCR analysis of NRF2-regulated genes; type: cell-based, human; conditions: for fold induction at 10 µM: Homo sapiens; for Potential NRF2 Activation (>=2 target genes induced, by >=1.5-fold): Assay 13(p)
Procedure, shortened: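 Expression of HMOX1, NQO1, GCLC and GSTM1 measured by qPCR relative to B2M, PPIA and GAPDH. Cells were WI-38 fibroblasts exposed 24 hrs to 10 μM compound, with RNA and cDNA prepared via Cells-to-Ct. Where stated, cells were first transfected 36 hrs with FOXO3 or NRF2 siRNA at 10 nM.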

[1] = tested on: HTB-178 lung tumor cells (EGFR+, PIK3CA+, RB1−, TP53−); assay: Killing effects on HTB-178 tumor cells; type: cell-based, human; conditions: for Potential killing effects on HTB-178 tumor cells, 1st / Potential killing effects on HTB-178 tumor cells, 2nd: Assay 1(y), at 10 uM; for Assay 21: Potential killing effects on HTB-178 tumor cells: 10 uM, YES/NO
[2] = 24 h, Assay 12(o), at 10 uM, qPCR, read-out: Induction of NRF2-regulated genes: NQO1 normalized fold-change
[3] = rounded fold change, WI-38 cells, 10 μM, 24 hrs (RP11 for Gr-1D, RP29 for Gr-4D), read-out: Summary of effects on NRF2-regulated genes: HMOX1
[4] = rounded fold change, WI-38 cells, 10 μM, 24 hrs (RP29 for Gr-4D), read-out: Summary of effects on NRF2-regulated genes: NQO1
[5] = 10 μM, 24 hrs, WI-38 cells, qPCR, normalized to B2M, n = 4, read-out: HMOX1 expression, normalized fold change (NRF2-regulated gene)
[6] = 10 μM, 24 hrs, WI-38 cells, qPCR, normalized to B2M, n = 4, read-out: NQO1 expression, normalized fold change (NRF2-regulated gene)
[7] = WI-38 cells, 10 μM, 24 hrs, n=4, qPCR normalized by B2M, read-out: GCLC Normalized fold change
[8] = WI-38 cells, 10 μM, 24 hrs, n=4, qPCR normalized by B2M, read-out: GSTM1 Normalized fold change
[9] = WI-38 cells, 10 μM, 24 hrs, n=4, qPCR normalized by B2M, read-out: HMOX1 Normalized fold change
[10] = WI-38 cells, 10 μM, 24 hrs, n=4, qPCR normalized by B2M, read-out: NQO1 Normalized fold change
[11] = 24 h, Assay 12(o), at 10 uM, qPCR, read-out: Induction of NRF2-regulated genes: HMOX1 normalized fold-change
[12] = 10 μM, 24 hrs, WI-38, read-out: Expression of at least two NRF2 target genes
[13] = 10 μM, 24 hrs, WI-38 cells, qPCR, normalized to B2M, n = 4
[14] = WI-38 cells, 10 μM, 24 hrs, n=4, qPCR normalized by B2M
[15] = rounded fold change, WI-38 cells, 10 μM, 24 hrs (RP29 for Gr-4D)
[16] = 24 h, Assay 12(o), at 10 uM, qPCR, read-out: Induction of NRF2-regulated genes: GCLC normalized fold-change
[17] = rounded fold change, WI-38 cells, 10 μM, 24 hrs, read-out: Summary of effects on NRF2-regulated genes: GCLC
[18] = 10 μM, 24 hrs, WI-38 cells, qPCR, normalized to B2M, n = 4, read-out: GCLC expression, normalized fold change (NRF2-regulated gene)

SMILES | F = Potential NRF2 Activation (NRF2; 2-point score) | fold induction at 10 µM (NRF2; [2]) | fold induction at 10 µM (NRF2; [3]) | fold induction at 10 µM (NRF2; [4]) | fold induction at 10 µM (NRF2; [5]) | fold induction at 10 µM (NRF2; [6]) | fold induction at 10 µM (NRF2; [7]) | fold induction at 10 µM (NRF2; [8]) | fold induction at 10 µM (NRF2; [9]) | fold induction at 10 µM (NRF2; [10]) | F = Potential NRF2 Activation (NRF2; summary score) | fold induction at 10 µM (NRF2; [11]) | Potential killing effects on HTB-178 tumor cells, 1st [1] | other results
O=[N+]([O-])c1ccccc1S(=O)(=O)Nc1cccc2cccnc12 [Gr-3A] | 0 | 1.3 | 1.41 | 1.37 | 1.41 | 1.37 | 1.01 | 1.35 | 1.41 | 1.37 | 0 | – | – | Potential targets: human protein targets (confirmed) (human protein targets): ADRBK1, APLNR, BARD1, BAZ2B, BRCA1, CCR6, DRD3, GMNN, IL1B,; also recorded: MDM2, MDM4, NFE2L2, NFKBIA, NOD1, NOD2, OPRK1, RBBP8, RELA,; also recorded: SIX1, SMAD3, TDP1
Nc1ccccc1S(=O)(=O)Nc1cccc2cccnc12 [Gr-3C] | 0 | – | – | – | – | – | 0.991 | 1.45 | 1.12 | 1.19 | 0 | 0.86 | – | Potential targets: human protein targets (confirmed) (human protein targets): GAPDH, NFKBIA, RELA
CCc1ccc(Oc2nc3ccccn3c(=O)c2/C=C(\C#N)C(=O)NC2CCCCC2)cc1 [Gr-5A] | 2 | 1.55 | 2.06 | 1.55 | 2.06 | 1.55 | 0.919 | 1.15 | 2.06 | 1.55 | 2 | 2.06 | YES; | Potential NRF2 Activation (>=2 target genes induced, by >=1.5-fold) (NRF2): YES; fold induction at 10 µM (NRF2; [12]): > 1.5
Cc1cc(N)n(-c2ccccc2C(=O)O)n1 [Gr-6A] | 0 | – | – | – | – | – | 1.03 | 1.09 | 1.1 | 1.02 | 0 | – | YES; | –
O=C(NCc1cccnc1)/C(=C\c1ccc(Br)cc1)S(=O)(=O)c1ccccc1 [Gr-7B] | 0 | – | 54.1 | – | 54.1 | – | 1.8 | 0.981 | 54.2 | 1.41 | 0 | 17.9 | YES; | Assay 21: Potential killing effects on HTB-178 tumor cells [1]: YES; Toxicity / viability of HTB-178 lung tumor cells ([1]; 10 μM, preliminary data): exerted more pronounced toxicity; also recorded: significantly reduce the viability
COc1cc2c(no[n+]2[O-])n2nnnc12 [O11] | 0 | – | – | – | – | – | – | – | – | – | 0 | – | YES; | Induction of at least two NRF2-regulated genes (HMOX1, NQO1, GCLC, GSTM1) (NRF2; 10 μM, 24 hrs, WI-38): could induce expression of at least two genes; GSTM1 expression, normalized fold change (NRF2-regulated gene) (NRF2; [13]): GSTM1 1.30, fold; NQO1 expression, normalized fold change (NRF2-regulated gene) (NRF2; [13]): NQO1 2.03, fold; Induction of NRF2-regulated genes: GSTM1 normalized fold-change (NRF2; Assay 12(o), at 10 uM, qPCR): GSTM1 1.30, fold-change; Induction of NRF2-regulated genes: NQO1 normalized fold-change (NRF2; Assay 12(o), at 10 uM, qPCR): NQO1 2.03, fold-change; GCLC Normalized fold change (NRF2; [14]): 1.333 fold change; GSTM1 Normalized fold change (NRF2; [14]): 1.304 fold change; HMOX1 Normalized fold change (NRF2; [14]): 1.069 fold change; NQO1 Normalized fold change (NRF2; [14]): 2.027 fold change; Summary of effects on NRF2-regulated genes: GSTM1 (NRF2; [15]): 1.30,; Summary of effects on NRF2-regulated genes: NQO1 (NRF2; [15]): 2.03,
CCCC(=O)Nc1ccc(-c2cn3cccc(C)c3n2)cc1 [O12] | 0 | 0.66 | 0.82 | 0.69 | 0.82 | 0.69 | 0.531 | 1.21 | 0.821 | 0.692 | 0 | 0.76 | YES; | fold induction at 10 µM (NRF2; [16]): 0.54; fold induction at 10 µM (NRF2; [17]): 0.53; fold induction at 10 µM (NRF2; [18]): 0.53
Oc1ncnc2sc3c(c12)CCC3 [O14] | 0 | – | – | – | – | – | 1.07 | 1.53 | 1.11 | 0.871 | 0 | – | – | Potential targets: human protein targets (confirmed) (human protein targets): TRHR
CCCN1C/C(=C\c2ccc(F)cc2)C(=O)/C(=C/c2ccc(F)cc2)C1 [O15] | 2 | 1.6 | 48.7 | 1.6 | 48.7 | 1.6 | 1.23 | 0.995 | 48.7 | 1.6 | 2 | 48.7 | YES; | Potential killing effects on HTB-178 tumor cells, 2nd [1]: YES.; Potential NRF2 Activation (>=2 target genes induced, by >=1.5-fold) (NRF2): YES; fold induction at 10 µM (NRF2; [12]): > 1.5
[O-][n+]1onc2c3nsnc3c(Br)cc21 [O17] | 0 | 1.47 | – | 1.47 | – | 1.47 | 1.35 | 1.12 | 1.08 | 1.47 | 0 | – | YES; | Potential killing effects on HTB-178 tumor cells, 2nd [1]: YES.; Induction of at least two NRF2-regulated genes (HMOX1, NQO1, GCLC, GSTM1) (NRF2; 10 μM, 24 hrs, WI-38): could induce expression of at least two genes; fold induction at 10 µM (NRF2; [16]): 1.36; fold induction at 10 µM (NRF2; [17]): 1.36; fold induction at 10 µM (NRF2; [18]): 1.36
Oc1ccccc1-c1noc(-c2ccccc2O)n1 [O27] | 0 | – | – | – | – | – | – | – | – | – | 0 | – | – | Assay 21: Potential killing effects on HTB-178 tumor cells [1]: YES
